The source of these data is patent US8722930B2, “Protease inhibitors” (Orion Corporation, priority 2009, dated 2014).

In assay [1] the target is T1, Purified recombinant matriptase (Homo sapiens, UniProt Q9Y5Y6).
T1 sequence (Q9Y5Y6 1-855): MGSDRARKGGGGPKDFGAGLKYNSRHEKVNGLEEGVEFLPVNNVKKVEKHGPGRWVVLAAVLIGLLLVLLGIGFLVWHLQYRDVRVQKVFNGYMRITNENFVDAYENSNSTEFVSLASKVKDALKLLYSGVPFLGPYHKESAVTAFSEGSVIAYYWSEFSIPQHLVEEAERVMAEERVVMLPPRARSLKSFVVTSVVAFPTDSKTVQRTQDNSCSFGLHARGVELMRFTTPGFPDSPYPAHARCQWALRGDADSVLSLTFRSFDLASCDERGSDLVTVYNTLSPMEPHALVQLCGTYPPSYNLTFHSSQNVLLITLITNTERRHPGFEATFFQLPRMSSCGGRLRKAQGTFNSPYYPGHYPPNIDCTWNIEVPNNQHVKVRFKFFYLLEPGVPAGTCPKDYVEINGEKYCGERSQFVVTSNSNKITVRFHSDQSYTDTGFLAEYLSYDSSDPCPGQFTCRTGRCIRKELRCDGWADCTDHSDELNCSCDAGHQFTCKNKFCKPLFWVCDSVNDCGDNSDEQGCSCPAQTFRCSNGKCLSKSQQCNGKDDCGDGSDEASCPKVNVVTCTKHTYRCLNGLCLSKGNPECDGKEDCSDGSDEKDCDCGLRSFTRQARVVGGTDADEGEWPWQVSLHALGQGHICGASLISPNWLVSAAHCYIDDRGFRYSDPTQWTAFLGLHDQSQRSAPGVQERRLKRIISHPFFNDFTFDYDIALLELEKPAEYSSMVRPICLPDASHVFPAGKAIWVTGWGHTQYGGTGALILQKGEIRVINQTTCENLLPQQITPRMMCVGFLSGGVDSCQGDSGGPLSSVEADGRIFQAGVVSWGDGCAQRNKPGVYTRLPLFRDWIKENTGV
In words: Matriptase fluorescence-based enzymatic assay (Boc-Gln-Ala-Arg-AMC cleavage). The format is biochemical. From the text: (§1) Purified recombinant matriptase was used in a fluorescence-based screening assay using Gln-Ala-Arg peptide as a substrate. In this assay the cleavage of AMC from Boc-Gln-Ala-Arg-7-amido-4 methylcoumarin hydrochloride (Boc-Gln-Ala-Arg-AMC) (Sigma, USA) was monitored by measuring the increase in fluorescence intensity of AMC released upon proteolytic cleavage at 480 nm (kex=360 nm). Similarly, enzymatic assays in fluorimetric or colorimetric format for uPA, Factor Xa, thrombin, plasmin and trypsin (Sigma, USA) were established using substrates pyroGlu-Gly-Arg-pNA.HCl, Boc-Gln-Ala-Arg-AMC, CH3OCO-D-CHA-Gly-Arg-PNA.AcoH, Pyro Glu-Phe-Lys—pNA.HCl and Boc-Gln-Ala-Arg-AMC, respectively.

Assay [2] concerns DU145 cells. Kind of assay: Cell invasion assay (matrigel transwell). In kind it is cell-based. Particulars: for inhibition at 10 µM: Homo sapiens, DU-145, 48 hours. As for the experimental part: Cell invasion assays were done for quantitating the degree to which invasive cells penetrate a barrier essentially as in migration assay but with the use of matrigel consisting of basement membrane components in the transwell inserts and incubating for 48 hours. The barrier used was matrigel. This was followed by fixing and staining of the transwell insert with 0.5% crystal violet in 25% methanol in order to visualize cells migrated.

The target of assay [3] is T2, thrombin (Homo sapiens, UniProt P00734).
T2 construct: uPA, Factor Xa, thrombin, plasmin and trypsin (Sigma, USA); purchased Sigma, USA
In words: Thrombin enzymatic assay (selectivity screening). The format is biochemical. The settings on record: for Thrombin Inhibition (%): % Inhibition at 5 μM.
Excerpt: as §1

Assay [4] deals with DU145 cells. Kind of assay: Migration assay in transwell chambers. The format is cell-based. The settings on record: for inhibition at 10 µM: Homo sapiens, DU-145, 24 hours. As for the experimental part: Migration assays were performed to determine the effect of matriptase inhibitors on cell motility. Cells were seeded with 10 μM test compound into transwell chambers and allowed to migrate for 24 hours using a combination of 10% FBS and 5 μg/ml fibronectin as chemoattractant.

For assay [5], the target named is T3, Factor Xa (Homo sapiens, UniProt P00742).
T3 construct: uPA, Factor Xa, thrombin, plasmin and trypsin (Sigma, USA); purchased Sigma, USA
T3 sequence (P00742 235-488 limits assumed): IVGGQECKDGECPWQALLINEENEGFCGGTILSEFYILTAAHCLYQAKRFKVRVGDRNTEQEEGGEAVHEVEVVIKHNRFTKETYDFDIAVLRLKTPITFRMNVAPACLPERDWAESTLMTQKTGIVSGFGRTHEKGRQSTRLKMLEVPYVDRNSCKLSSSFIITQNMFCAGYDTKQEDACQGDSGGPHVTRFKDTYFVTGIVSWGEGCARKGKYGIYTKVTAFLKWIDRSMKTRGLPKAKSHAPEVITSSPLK
T3 sequence (P00742 41-179 partner limits assumed): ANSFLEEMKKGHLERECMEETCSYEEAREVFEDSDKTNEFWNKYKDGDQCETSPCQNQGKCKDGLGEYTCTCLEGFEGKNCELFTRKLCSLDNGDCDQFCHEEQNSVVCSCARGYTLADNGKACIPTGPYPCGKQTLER
Kind of assay: Factor Xa enzymatic assay (selectivity screening). In kind it is biochemical. The settings on record: for Factor Xa Inhibition (%): % Inhibition at 5 μM.
Excerpt: as §1

Assay [6] relates to DU145 cells. In words: Cytotoxicity, Calcein AM assay, DU145. The settings on record: four days of incubation; for viability at 10 µM: Homo sapiens, DU-145, 96 h, read-out: Cell survival at 10 μM (%). In kind it is cell-based. The procedure:
Cytotoxicity of the compounds was tested in cell lines or primary cells using Calcein AM assay. This assay measures cell viability by quantitation of cleaved fluorescent product of a cell permeable substrate that is retained in the cytoplasm of cells with uncompromised cytoplasmic membrane integrity. The cells were seeded into 96-well plate and allowed to adhere for a day followed by addition of compound at several different concentrations. After four days of incubation with the compound, media was removed from the cells followed by addition of PBS and addition of Calcein AM reagent at 1 μM final concentration. The cells were then allowed to incubate at 37° C. for half an hour followed by reading on the fluorimeter. Percent viability was calculated based on fluorescence value obtained at 485/520 nm with cut off at 495 nm.

The target of assay [7] is T4, uPA (Homo sapiens, UniProt P00749).
T4 construct: purchased Sigma, USA
In words: uPA enzymatic assay (selectivity screening). In kind it is biochemical. The settings on record: for uPA Inhibition (%): % Inhibition at 5 μM.
Excerpt: as §1

For assay [8], the target named is T5, plasmin (Homo sapiens, UniProt P00747).
T5 construct: uPA, Factor Xa, thrombin, plasmin and trypsin (Sigma, USA); purchased Sigma, USA
T5 sequence (P00747 581-810 limits assumed, species assumed): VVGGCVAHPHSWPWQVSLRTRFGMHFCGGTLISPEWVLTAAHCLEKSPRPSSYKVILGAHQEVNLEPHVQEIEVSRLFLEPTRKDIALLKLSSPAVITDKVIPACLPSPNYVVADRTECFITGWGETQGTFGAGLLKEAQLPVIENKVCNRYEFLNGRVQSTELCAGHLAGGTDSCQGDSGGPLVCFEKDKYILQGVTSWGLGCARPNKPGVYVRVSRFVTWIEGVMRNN
T5 sequence (P00747 97-580 partner limits assumed, species assumed): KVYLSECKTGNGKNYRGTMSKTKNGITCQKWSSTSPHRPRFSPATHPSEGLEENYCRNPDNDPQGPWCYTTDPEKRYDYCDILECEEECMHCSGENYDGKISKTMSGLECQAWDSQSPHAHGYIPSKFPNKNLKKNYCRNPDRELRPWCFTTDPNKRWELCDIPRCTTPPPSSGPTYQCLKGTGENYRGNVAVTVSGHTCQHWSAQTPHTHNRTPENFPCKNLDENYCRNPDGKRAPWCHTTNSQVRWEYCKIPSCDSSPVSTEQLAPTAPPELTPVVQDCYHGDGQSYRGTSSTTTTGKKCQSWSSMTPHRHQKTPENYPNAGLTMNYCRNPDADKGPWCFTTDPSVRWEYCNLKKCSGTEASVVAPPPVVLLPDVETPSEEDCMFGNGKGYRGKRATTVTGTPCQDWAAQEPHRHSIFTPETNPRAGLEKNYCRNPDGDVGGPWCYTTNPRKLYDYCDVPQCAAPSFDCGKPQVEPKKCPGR
In words: Plasmin enzymatic assay (selectivity screening). In kind it is biochemical. The settings on record: for Plasmin Inhibition (%): % Inhibition at 5 μM.
Excerpt: as §1

Assay [9] relates to trypsin. Kind of assay: Trypsin enzymatic assay (selectivity screening). Particulars: % Inhibition at 5 μM. The format is biochemical.
Excerpt: as §1

Where [10] appears, read: Table 1, read-out: Matriptase Inhibition IC50.
Where [11] appears, read: Table 2, read-out: Matriptase IC50.

Like-named read-outs stand apart in the source and are kept apart here.

With “1-[3,5-Bis-(4-carbanimidoyl-phenoxy)-benzoyl]-nonahydro-quinoline [Example 35]”, the values for the IC50 in assay [1] (setting [10]) and in assay [1] (setting [11]) were 313 nM and 312 nM, respectively. Besides, the “Inhibition of invasion at 10 μM (%)” value in assay [2] (48 hours) is 75%. Moreover, the “Thrombin Inhibition (%)” value in assay [3] is given as 67%. Further, the “Inhibition of migration at 10 μM (%)” value in assay [4] (24 hours) is reported as 18%. The “Factor Xa Inhibition (%)” value in [5] amounted to 69%. For the same compound, in assay [6], the “Cell survival at 10 μM (%)” value is recorded as 78%. In addition, in assay [7], the “uPA Inhibition (%)” value was found to be 10%. Besides, the “Plasmin Inhibition (%)” value in [8] is 69%.
For the compound “2-[3,5-Bis-(4-carbanimidoyl-phenoxy)-benzoyl]-nonahydro-isoquinoline [Example 37]”, in assay [1] (setting [10]), the IC50 came out at 479 nM. The “Thrombin Inhibition (%)” value in assay [3] is given as 74%. Also, the “Trypsin Inhibition (%)” value in assay [9] turned out to be 84%. Also, the “Factor Xa Inhibition (%)” value in assay [5] came to 67%. In addition, the “uPA Inhibition (%)” value in assay [7] came to 13%. Moreover, the “Plasmin Inhibition (%)” value in assay [8] stood at 65%.
In the case of `N=C(N)c1ccc(Oc2cc(Oc3ccc(C(=N)N)cc3)cc(C(=O)N3CCN(CCN)CC3)c2)cc1` [Example 31, 2-{4-[3,5-Bis-(4-carbamimidoyl-phenoxy)-benzoyl]-piperazin-1-yl}-ethylamine], in assay [1] (setting [10]), the IC50 was found to be 88 nM. The inhibition at 5 µM in assay [3] is 61%; in assay [5], 94%; in assay [7], 5%; in assay [8], 40%.
In the case of `N=C(N)c1ccc(Oc2cc(OCc3cccc(C(=N)N)c3)cc(C(=O)NC3CCC(N)CC3)c2)cc1` (stereo not shown) [Example 42, N-(4-Aminocyclohexyl)-3-(3-carbamimidoylbenzyloxy)-5-(4-carbamimidoylphenoxy)benzamide], the IC50 in [1] (setting [10]) stood at 10 nM. Further, the inhibition at 5 µM turned out to be 36% in assay [3], 93% in [5], 11% in assay [7] and 30% in assay [8].
Turning to `N=C(N)c1ccc(COc2cc(Oc3ccc(C(=N)N)cc3)cc(C(=O)NC3CCC(N)CC3)c2)cc1` (stereo not shown) [Example 43, N-(4-Aminocyclohexyl)-3-(4-carbamimidoylbenzyloxy)-5-(4-carbamimidoylphenoxy)benzamide], in [1] (setting [10]), the IC50 turned out to be 16 nM. Further, the inhibition at 5 µM in assay [3] was found to be 45%; in [5], 76%; in assay [7], 7%; in [8], 33%.
`N=C(N)c1ccc(Oc2cc(OCc3ccc(CN)cc3)cc(C(=O)NC3CCC(N)CC3)c2)cc1` (stereo not shown) [Example 45, N-(4-Aminocyclohexyl)-3-(4-aminomethylbenzyloxy)-5-(4-carbamimidoylphenoxy)benzamide]: the IC50 in assay [1] (setting [10]) was determined as 48 nM. Besides, the inhibition at 5 µM is -12% in assay [3], 47% in assay [5], 6% in assay [7] and 21% in assay [8].
As to `N=C(N)c1ccc(Oc2cc(OCc3cccc(C(=N)N)c3)cc(C(=O)N3CCC(CCN)CC3)c2)cc1` [Example 57, 2-{1-[3-(3-Carbamimidoyl-benzyloxy)-5-(4-carbamimidoyl-phenoxy)-benzoyl]-piperidin-4-yl}-ethylamine], the concentration for half-maximal inhibition (IC50) in assay [1] (setting [10]) came to 29 nM. The inhibition at 5 µM is 57% in assay [3], 94% in assay [5], 10% in [7] and 50% in assay [8]. The “Trypsin Inhibition (%)” value in assay [9] was found to be 74%.
For the compound `N=C(N)CCCCOc1cc(Oc2ccc(C(=N)N)cc2)cc(C(=O)NC2CCC(N)CC2)c1` (stereo not shown) [Example 65, N-(4-Aminocyclohexyl)-3-(4-carbamimidoylbutoxy)-5-(4-carbamimidoyl-phenoxy)-benzamide], the IC50 in assay [1] (setting [10]) was determined as 16.8 nM; in [1] (setting [11]), 16 nM. The inhibition at 10 µM amounted to 88% in assay [2] and 7% in [4]. Further, the inhibition at 5 µM in assay [3] was found to be 27%; in assay [5], 63%; in assay [7], 4%; in [8], 5%. In addition, the viability at 10 µM in assay [6] was 96%.
Regarding `N=C(N)CCCCCOc1cc(Oc2ccc(C(=N)N)cc2)cc(C(=O)NC2CCC(N)CC2)c1` (stereo not shown) [Example 66, N-(4-Aminocyclohexyl)-3-(5-carbamimidoylpentyloxy)-5-(4-carbamimidoyl-phenoxy)-benzamide], the values for the IC50 in assay [1] (setting [10]) and in assay [1] (setting [11]) were 16.1 nM and 16 nM, respectively. For the same compound, the inhibition at 10 µM in assay [2] was 95%; in [4], 88%. Also, the inhibition at 5 µM is 21% in [3], 43% in assay [5], 3% in assay [7] and 5% in [8]. In addition, the viability at 10 µM in assay [6] was 87%.
As for `N=C(N)c1ccc(Oc2cc(Oc3ccc(C(=N)N)cc3Cl)cc(C(=O)NC3CCC(N)CC3)c2)cc1` (stereo not shown) [Example 69, N-(4-Aminocyclohexyl)-3-(4-carbamimidoyl-2-chlorophenoxy)-5-(4-carbamimidoylphenoxy)benzamide], the IC50 in assay [1] (setting [10]) stood at 18.9 nM. Also, the inhibition at 5 µM in [3] is 26%; in [5] it was 81%; in [7] it was 9%; in assay [8] it was 22%.
On the same counts, the results for `N=C(N)c1cccc(COc2cc(OCc3cccc(C(=N)N)c3)cc(C(=O)NC3CCC(N)CC3)c2)c1` (stereo not shown) [Example 77, N-(4-Aminocyclohexyl)-3,5-bis-(3-carbamimidoyl Benzyloxy)benzamide] are 5 nM, 76%, 96%, 11% and 22%.
Take `N=C(N)c1ccc(Oc2cc(Oc3ccc(CN)cc3)cc(C(=O)NC3CCC(N)CC3)c2)cc1` (stereo not shown) [Example 84, N-(4-Aminocyclohexyl)-3-(4-aminomethylphenoxy)-5-(4-carbamimidoylphenoxy)benzamide]: the IC50 amounted to 63.4 nM in [1] (setting [10]) and 63 nM in [1] (setting [11]). The inhibition at 10 µM in assay [2] was determined as 92%; in assay [4], 80%. The inhibition at 5 µM in [3] was 36%; in [5] it was 5%; in assay [7], 5%; in assay [8], 10%. Also, in assay [6], the viability at 10 µM was 100%.
Regarding `N=C(N)c1cc(F)c(Oc2cc(Oc3ccc(CN)cc3)cc(C(=O)NC3CCC(N)CC3)c2)c(F)c1` (stereo not shown) [Example 87, N-(4-Amino-cyclohexyl)-3-(4-aminomethyl-phenoxy)-5-(4-carbamimidoyl-2,6-difluoro-phenoxy)-benzamide], the IC50 in [1] (setting [11]) came out at 158 nM. In addition, the inhibition at 10 µM in assay [2] was 88%; in assay [4] it was 47%. The viability at 10 µM in assay [6] was 113%.
